Laboratory results: US20100330128A1, “Method of improving immune function in mammals using lactobacillus strains with certain lipids” (priority 2005, published 2010)

What follows are substances tested on lymphocytes separated from spleen and thymus (assay: Lymphocyte proliferation assay (alamar blue)). Details: 72 hours after addition of stimulant, FIG. 2.
Assay type: cell-based, BALB/c mice
Procedure: Lymphocytes were prepared from the spleen and thymus of BALB/c mice and were incubated with supernatants derived from growing L. reuteri ATCC 55730 in the presence and absence of glycerol (50 mM). L. reuteri ATCC 55730 was selected as it is a known good producer of 3-HPA and thus follows the selection criteria of the invention. Control incubations were performed with glycerol alone, media alone and known lymphocyte proliferation stimulants.
Separation of spleen and thymus lymphocytes. BALB/c mice were sacrificed by cervical dislocation, and their thymus was separated, immersed in Hanks' balanced salt solution (HBSS) and torn piecemeal to obtain a single cell. The single cell was centrifuged through double layers in Histopaque-1083 (Sigma) to obtain lymphocytes. These cells were washed two times with IMDM, and living cells were counted according to tryphan blue exclusion technique and used in the experiment at an adjusted final concentration of 1×10^7/mL.
Preparation of bacterial lysates. L. reuteri and Listeria monocytogenes lysates were prepared as mentioned in the phagocytic assay.
Preparation of L. reuteri supernatants. L. reuteri supernatant was also prepared as mentioned in the phagocytic assay.
Lymphocyte proliferation assay. Lymphocyte proliferation assay was carried out using lymphocytes suspended in IMDM+10% horse serum at 4×10^6 per well. The lymphocytes were treated with varying concentrations of L. reuteri, L. monocytogenes cell lysate and L. reuteri supernatant along with a reference stimulant, of which concentrations and conditions were as follows:
In the results reported in Table 2, MRS and glycerol sol. controls were used by adjusting pH in broths which were not incubated with L. reuteri, and the following symbols used: ConA: concanavalin A, PWM: pokeweed mitogen, PHA: phytohemaaglutinin, LPS: liphopholysaccharide from Salmonella enterica serovar Typhimurium.
Stimulants including ConA were added into a well containing lymphocytes in accordance with each condition, 3 hours before alamar blue was added at 10% concentration. 72 hours after the addition of each stimulant, the level of lymphocyte proliferation was determined by the value of OD570 nm-OD600 nm.
The result of lymphocyte proliferation was represented as Stimulation Index (SI), which is (ODtreatment-ODmedia control)/ODcell control value. In the case of L. reuteri supernatant treatment group, however, values of J and K treatment groups, but not IMDM+10% horse serum, were used as OD media control value.
concanavalin A [ConA] was tested, and the “lymphocyte proliferation (Stimulation Index)” value was “marked stimulation of lymphocyte proliferation”. For phytohemaaglutinin [PHA], the “lymphocyte proliferation (Stimulation Index)” value was “marked stimulation of lymphocyte proliferation”. With pokeweed mitogen [PWM] the “lymphocyte proliferation (Stimulation Index)” value was “marked stimulation of lymphocyte proliferation”. In the case of “liphopholysaccharide from Salmonella enterica serovar Typhimurium [LPS]”, the “lymphocyte proliferation (Stimulation Index)” value is reported as “marked stimulation of lymphocyte proliferation”.
